Among the test systems are SF-295 CNS; COLO 205 colon; SN12C renal; NCI-H23 lung; UACC-62 melanoma; OVCAR-3 ovarian; A549 NSCLC; NCI-H226 lung.
Common to all, as to assay: NCI-60 cell line screen, 48 h

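Growth conditions: 96-well plates. Treatment: test compound, 48 hours, 5 concentrations. Analysis: linear interpolation between bracketing concentrations; unreached endpoints set to highest concentration. The concentration for 50% growth inhibition is given as GI50. TGI marks complete inhibition of growth.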

Take `COC1CCC(O)C(/C=C/[N+](=O)[O-])C1` (centres undefined): the TGI with SF-295 CNS came to 23.9 µM; in the experiment with COLO 205 colon, 5.7 µM; in the experiment with SN12C renal it was 9.05 µM; with NCI-H23 lung, 16.6 µM; with UACC-62 melanoma, 19.3 µM; in the experiment on OVCAR-3 ovarian, 22.3 µM. The TGI was determined as 42.9 µM with A549 NSCLC and 5.96 µM in the experiment with NCI-H226 lung.

`O=c1cc(N2CCNCC2)oc2c(-c3ccccc3)cccc12`: the GI50 was 39.8 µM with SF-295 CNS; 11.3 µM in the experiment with COLO 205 colon; 45.1 µM in the experiment on SN12C renal; more than 100 µM in the experiment on NCI-H23 lung; 25.2 µM in the experiment with UACC-62 melanoma; 24.6 µM with OVCAR-3 ovarian. The GI50 in the experiment with A549 NSCLC is 23.3 µM; in the experiment on NCI-H226 lung, more than 100 µM. Moreover, the TGI in the experiment on SF-295 CNS is more than 100 µM; with COLO 205 colon, 27.8 µM; with SN12C renal it was more than 100 µM; with NCI-H23 lung it was more than 100 µM; in the experiment with UACC-62 melanoma, more than 100 µM; in the experiment on OVCAR-3 ovarian, more than 100 µM. Further, the TGI with A549 NSCLC was 76.2 µM; in the experiment on NCI-H226 lung, more than 100 µM.

In the case of `CCOC(=O)C1=C(C)NC2SC(=O)/C(=C\c3ccccc3O)N2C1c1ccccc1` (centres undefined), the GI50 with SF-295 CNS is 27.2 µM; with COLO 205 colon it was 23.2 µM; with SN12C renal it was 16.6 µM; in the experiment with NCI-H23 lung, 24.5 µM; in the experiment on UACC-62 melanoma, 18 µM; in the experiment with OVCAR-3 ovarian, 20.4 µM. The GI50 is 27.2 µM in the experiment on A549 NSCLC and 29 µM in the experiment with NCI-H226 lung. Also, the TGI in the experiment with SF-295 CNS is more than 100 µM; with COLO 205 colon, 72.8 µM; in the experiment with SN12C renal, 30.5 µM; in the experiment with NCI-H23 lung, 53.5 µM; in the experiment on UACC-62 melanoma, 41.8 µM; in the experiment on OVCAR-3 ovarian, 49.9 µM. Besides, the figures for the TGI in the experiment with A549 NSCLC and in the experiment on NCI-H226 lung were more than 100 µM and 90.4 µM, respectively.

Take `c1ccc(-c2cc(C3CO3)c3ccccc3n2)cc1` (centres undefined): the TGI was more than 100 µM in the experiment with SF-295 CNS; 37.4 µM with COLO 205 colon; 31.3 µM with SN12C renal; 37.5 µM in the experiment on NCI-H23 lung; 33.7 µM in the experiment on UACC-62 melanoma; 33.7 µM in the experiment with OVCAR-3 ovarian. Also, the TGI with A549 NSCLC was found to be 40.4 µM; in the experiment with NCI-H226 lung it was 43.1 µM.

As to `CC(C)(C)c1[nH]cnc1/C=c1\[nH]c(=O)/c(=C/c2ccccc2)[nH]c1=O`, the GI50 was less than 0.01 µM with SF-295 CNS; 0.013 µM in the experiment with COLO 205 colon; less than 0.0144 µM with SN12C renal; 0.03 µM with NCI-H23 lung; less than 0.01 µM in the experiment on UACC-62 melanoma; less than 0.01 µM in the experiment with OVCAR-3 ovarian. Moreover, the GI50 was 0.0181 µM in the experiment with A549 NSCLC and 0.0275 µM in the experiment with NCI-H226 lung. Also, the TGI is 20.5 µM in the experiment with SF-295 CNS; 0.101 µM in the experiment with COLO 205 colon; 69.6 µM with SN12C renal; 35.2 µM in the experiment on NCI-H23 lung; 21.2 µM with UACC-62 melanoma; 19.2 µM in the experiment with OVCAR-3 ovarian. In addition, the TGI in the experiment with A549 NSCLC came to 41.5 µM; in the experiment on NCI-H226 lung, 3.69 µM.

For the compound `O=C(c1ccco1)c1nc2cc(F)ccc2[n+]([O-])c1C(F)(F)F`, the GI50 is 51.8 µM with SF-295 CNS; 16 µM in the experiment on COLO 205 colon; 44.4 µM in the experiment with SN12C renal; 19.1 µM with NCI-H23 lung; 24.8 µM in the experiment on UACC-62 melanoma; 20.8 µM with OVCAR-3 ovarian. The GI50 in the experiment on A549 NSCLC was 34.6 µM; in the experiment on NCI-H226 lung, 99.1 µM. Moreover, the TGI was more than 100 µM in the experiment on SF-295 CNS; 32.7 µM with COLO 205 colon; more than 100 µM in the experiment on SN12C renal; 42.7 µM with NCI-H23 lung; 68.2 µM in the experiment with UACC-62 melanoma; 46.7 µM in the experiment on OVCAR-3 ovarian. Moreover, the TGI in the experiment on A549 NSCLC and with NCI-H226 lung was more than 100 µM each time.

For `CN(C)CCNC(=O)Cn1cc([N+](=O)[O-])c(=O)c2ccccc21`, the TGI in the experiment with SF-295 CNS, with COLO 205 colon, with SN12C renal, in the experiment on NCI-H23 lung, in the experiment with UACC-62 melanoma and in the experiment with OVCAR-3 ovarian was more than 100 µM each time. Moreover, the TGI in the experiment on A549 NSCLC and with NCI-H226 lung was more than 100 µM in each case.

As for `COc1ccc2c(c1)C(=O)c1c-2c(Nc2ccc(C(C)=O)cc2)nc2ccccc12`, the GI50 in the experiment with SF-295 CNS was 33.8 µM; in the experiment on COLO 205 colon, more than 100 µM; in the experiment with SN12C renal, 33.4 µM; with NCI-H23 lung, 18 µM; in the experiment with UACC-62 melanoma, 21.9 µM; with OVCAR-3 ovarian it was more than 100 µM. Further, the GI50 with A549 NSCLC is 37.2 µM; with NCI-H226 lung it was 38.3 µM. Moreover, the TGI in the experiment with SF-295 CNS was more than 100 µM; in the experiment with COLO 205 colon it was more than 100 µM; in the experiment with SN12C renal, more than 100 µM; in the experiment with NCI-H23 lung, 99.2 µM; in the experiment with UACC-62 melanoma it was more than 100 µM; in the experiment with OVCAR-3 ovarian, more than 100 µM. The TGI with A549 NSCLC and in the experiment with NCI-H226 lung was more than 100 µM throughout.

On to `CN1CCN(Cc2ccc(NC(=O)c3cncc(C#Cc4cncc5ncccc45)c3)cc2C(F)(F)F)CC1`, for which the GI50 is 3.72 µM in the experiment on SF-295 CNS; 1.11 µM in the experiment on COLO 205 colon; 2.59 µM in the experiment on SN12C renal; 1.54 µM in the experiment with NCI-H23 lung; 1.67 µM with UACC-62 melanoma; 6.32 µM in the experiment with OVCAR-3 ovarian. Also, the GI50 in the experiment on A549 NSCLC is 3.86 µM; with NCI-H226 lung, 0.467 µM. Further, the TGI in the experiment with SF-295 CNS was 15.8 µM; with COLO 205 colon it was 13.2 µM; in the experiment on SN12C renal, 11.8 µM; in the experiment on NCI-H23 lung, 12.2 µM; in the experiment on UACC-62 melanoma it was 9.52 µM; in the experiment with OVCAR-3 ovarian, 19.2 µM. The TGI was determined as 15.5 µM with A549 NSCLC and 11.8 µM in the experiment with NCI-H226 lung.

For `CC(C)(C#N)c1cc(F)cc(C(=O)Nc2cc(Nc3ncccc3-c3ncnc4nc[nH]c34)ccc2F)c1`, the GI50 in the experiment with SF-295 CNS is 3.74 µM; in the experiment with COLO 205 colon, 0.109 µM; with SN12C renal, 3.11 µM; with NCI-H23 lung it was 0.501 µM; in the experiment on UACC-62 melanoma, 0.0841 µM; in the experiment on OVCAR-3 ovarian, 5.5 µM. Further, the GI50 in the experiment on A549 NSCLC was 5.49 µM; in the experiment with NCI-H226 lung it was 0.804 µM. Also, the TGI with SF-295 CNS, in the experiment on COLO 205 colon, with SN12C renal, with NCI-H23 lung, in the experiment with UACC-62 melanoma and in the experiment with OVCAR-3 ovarian was more than 10 µM each time. For the same compound, the TGI in the experiment with A549 NSCLC and in the experiment on NCI-H226 lung was more than 10 µM each time.

As for `CC(=O)c1c(C)n(C)c2c1nnc1ccccc12`, the TGI with SF-295 CNS, with COLO 205 colon, with SN12C renal, with NCI-H23 lung, in the experiment with UACC-62 melanoma and in the experiment on OVCAR-3 ovarian was more than 100 µM throughout. In addition, the TGI in the experiment on A549 NSCLC and in the experiment on NCI-H226 lung was more than 100 µM each time.

Values taken from PubChem BioAssay (NCI).
